Experimental data as given in the CheMixHub ionic liquid set.

Assay: xn = mol fraction of the nth substance listed
Conditions: 100 kPa

C[NH2+]CCC=C1c2ccccc2CCc2ccccc21.[Cl-] + CC[n+]1ccn(C)c1.[Br-] + O
viscosity [mPa·s]
Conditions | 288.15 K | 298.15 K | 308.15 K | 318.15 K
x1 = 0.0001985, x2 = 0.0001801 | 1.149 | 0.92 | 0.754 | 0.638
x1 = 0.0002171, x2 = 0.0007201 | 1.157 | 0.927 | 0.76 | 0.645
x1 = 0.0002197, x2 = 0.00126 | 1.164 | 0.936 | 0.768 | 0.653
x1 = 0.0005409, x2 = 0.0001801 | 1.158 | 0.928 | 0.761 | 0.646
x1 = 0.00056, x2 = 0.001259 | 1.173 | 0.944 | 0.776 | 0.662
x1 = 0.0005649, x2 = 0.0007199 | 1.166 | 0.935 | 0.768 | 0.653
x1 = 0.0009071, x2 = 0.0007196 | 1.176 | 0.944 | 0.776 | 0.66
x1 = 0.0009111, x2 = 0.00018 | 1.168 | 0.936 | 0.769 | 0.652
x1 = 0.0009287, x2 = 0.001259 | 1.183 | 0.952 | 0.784 | 0.67
x1 = 0.001275, x2 = 0.001258 | 1.194 | 0.962 | 0.792 | 0.678
x1 = 0.001279, x2 = 0.0001799 | 1.179 | 0.945 | 0.776 | 0.659
x1 = 0.001292, x2 = 0.0007194 | 1.187 | 0.953 | 0.784 | 0.667
x1 = 0.001649, x2 = 0.0007191 | 1.199 | 0.963 | 0.792 | 0.674
x1 = 0.001657, x2 = 0.0001799 | 1.19 | 0.954 | 0.784 | 0.666
x1 = 0.001661, x2 = 0.001258 | 1.206 | 0.972 | 0.8 | 0.686
x1 = 0.002001, x2 = 0.0001798 | 1.201 | 0.964 | 0.792 | 0.674
x1 = 0.002028, x2 = 0.0007188 | 1.211 | 0.974 | 0.8 | 0.681
x1 = 0.002029, x2 = 0.001257 | 1.218 | 0.982 | 0.809 | 0.694
x1 = 0.002358, x2 = 0.0001797 | 1.213 | 0.975 | 0.801 | 0.682
x1 = 0.002375, x2 = 0.001257 | 1.231 | 0.993 | 0.818 | 0.702
x1 = 0.002379, x2 = 0.0007186 | 1.223 | 0.984 | 0.808 | 0.689
x1 = 0.002737, x2 = 0.0001797 | 1.226 | 0.986 | 0.81 | 0.691
x1 = 0.002745, x2 = 0.001256 | 1.244 | 1.004 | 0.827 | 0.71
x1 = 0.002757, x2 = 0.0007183 | 1.236 | 0.994 | 0.817 | 0.698
x1 = 0.00309, x2 = 0.001256 | 1.258 | 1.015 | 0.836 | 0.718
x1 = 0.003104, x2 = 0.0001796 | 1.24 | 0.997 | 0.819 | 0.7
x1 = 0.003108, x2 = 0.000718 | 1.249 | 1.005 | 0.826 | 0.707
x1 = 0.003467, x2 = 0.0001795 | 1.255 | 1.008 | 0.829 | 0.709
x1 = 0.003489, x2 = 0.0007178 | 1.263 | 1.016 | 0.836 | 0.716
x1 = 0.00349, x2 = 0.001255 | 1.272 | 1.026 | 0.846 | 0.725
